These results are taken from article PMC8187357 (Communications Biology, 2021).

The structures appear in SMILES notation. Where “and” joins values, the source holds several entries; their conditions need not be identical. Identical values can stand only once. A value given as a limit tells only on which side of the number the result lay.

Usually inhibition stands for the change of the read-out against control, counted positive when it falls.

For experiment [1], the target named is T1, CGRP (Homo sapiens, UniProt O60894+Q16602).
T1 construct: Eurofins Cerep Panlabs (contract assay)
Nature of the experiment: CEREP 80 panel binding: CGRP. To be noted: read-out: % Inhibition of Control Specific Binding. The protocol: (§1) CEREP 80 panel assay was carried out by Eurofins Cerep Panlabs facility at France. A series of binding assays was carried out to understand the off-target toxicity of CA-170. CA-170 was tested at 10 μM test concentration in duplicates. Compound binding was calculated as a % inhibition of the binding of a radioactively labeled ligand specific for each target. In each experiment the respective reference compound was tested concurrently with CA-170, and the data were compared with historical values determined at Eurofins. The experiment was accepted in accordance with Eurofins validation standard operating procedure. The results are expressed as a percent of control specific binding; (measured specific binding / control specific binding) × 100 and as a percent inhibition of control specific binding; 100−(measured specific binding / control specific binding) × 100 obtained in the presence of CA-170. The IC50 values (concentration causing a half-maximal inhibition of control specific binding) and Hill coefficients (nH) were determined by non-linear regression analysis of the competition curves generated with mean replicate values using Hill equation curve fitting.

The subject of experiment [2] is Dopamine D1, D2S, D3, D44, D5. Nature of the experiment: CEREP 80 panel binding: Dopamine. Conditions: 10 µM. As to the method: as §1
The target of experiment [3] is T2, full-length human PD-L1 overexpressed in CHO-K1 cells (Homo sapiens, UniProt Q9NZQ7).
T2 construct: plasmid (pLVX puro-PD-L1; full-length human PD-L1); expressed in transfected cells; host or cells: CHO-K1 (lentiviral transduction)
Nature of the experiment: Cellular NMR (T2) binding, PD-L1 overexpressing CHO-K1 cells. To be noted: for I/I0 / T2: trials 1-3. As to the method:
HEK293T cells were transfected with plasmid (pLVX puro-PD-L1; full-length human PD-L1) using Lenti-X packaging single shots (Takara Bio, Cat. Nos. 631275) as per the recommended kit protocol in order to generate lentiviral particles. The supernatant collected after 48 h containing the lentiviral particles was used for lentiviral transduction of CHO-K1 cells. The expression of PD-L1 on the CHO-K1 cells was determined by flow cytometry. Limiting dilution cloning was performed to isolate single clones of CHO-K1 cells expressing high levels of PD-L1.
PD-L1 transfected CHO-K1 cells were cultured in Ham’s F12 K medium (Cat#21127-022, Gibco) containing penicillin & streptomycin antibiotic solution and 10% FBS (cat#SH30071-03, HyClone) along with 4 µg/mL of puromycin (Cat#A11138-03, Gibco), and were grown at 37 °C, 5% CO2 in a humidified atmosphere in tissue culture treated flask. 80–90% confluent cells were detached with PBS containing 2 mM EDTA, counted and washed twice with phosphate-buffered saline, pH 7.4 and re-suspended in PBS(cat#14190-144 Gibco) at a density of 8 million cells per mL. The cell suspension in PBS was transferred in a 5 mm Norell NMR tube containing 5% D2O and NMR experiments were performed under ligand titration. Cells remained viable under these experimental conditions as assessed by Trypan Blue staining method.
NMR experiments were carried out using Bruker 800 MHz NMR spectrometer fitted with 5 mm TCI cryoprobe. The experiment was performed over 4 × 10^6 cells in 95% 1 X PBS, pH 7.4, after adding 5% (v/v) D2O at constant temperature 298 K employing the pulse sequence shown in Supplementary Fig. 1a. The FID obtained was processed employing TOPSPIN software version 3.5. The interaction studies of CA-170 and overexpressed cells were carried out using a two-point HSQC method by recording the first FID. Briefly, during the transfer of polarization from ^1H to ^13C in the forward INEPT part of the 2D [^13C, ^1H] HSQC experiment, an additional delay of 16 ms is introduced on the proton channel during which the signal decays due to transverse relaxation. A second experiment is recorded with this delay set to […], the experimental parameters used to record these two spectra are given in Supplementary Table 7. A representative NMR spectrum of superimposed first FID of modified 2D [^13C, ^1H] HSQC of CA-170 treatment with PD-L1 overexpressed CHO-K1 cells is shown in Supplementary Fig. 1b.
The signal at any point of time is related to the initial intensity as follows. I=Ioexp(−Δt/T2) Where Δt is the difference between initial and final time points and I and Io are the final and initial intensity respectively. The transverse relaxation time (T2) of the ligand protons is calculated from the signal intensity ratio obtained from the above experiments by using the following equation which can be obtained from the above relation (Supplementary Table 8). T2=Relaxationdelay(τ)/−log(I/I0) where I = Area of the peak with delay (16 ms delay); I0 = Area of the peak without delay (16 μs delay).

Experiment [4] relates to MC38 colon carcinoma. Nature of the experiment: Antitumor efficacy in MC38 syngeneic model (C57B6). The format is in vivo, mouse. To be noted: MC38 in C57B6 mice, day 14 of dosing. The protocol:
For MC38 syngeneic colon carcinoma subcutaneous model, 0.5 × 10^6 MC38 cells (Source: NCI/NIH, kind gift from Dr. Michael Pollack) were injected subcutaneously to the left flank of the C57B6 mouse (In-house) or SCID Beige mice (Source: Harlan, France) on day 1 and dosing was initiated when average tumor volume reached ~100 mm^3. Animals were randomized based on tumor volumes and treated with either a vehicle control or CA-170 at indicated doses for 14 days. Anti-PD1 antibody (Clone J43 from BioXcel) was dosed intraperitoneally at 100 µg/animal once every week. Treatment efficacy was assessed in terms of the effects of the test substances on the tumor volumes of treated mice relative to vehicle-treated mice. Tumor growth curves of test and control groups using the mean tumor volumes were drawn, percent tumor growth inhibition (%TGI) […].

The subject of experiment [5] is PACAP,VIP1. The experiment is described as follows: CEREP 80 panel binding: VIP. To be noted: 10 µM. As to the method:
as §1

Experiment [6] deals with Angiotensin -II AT1, AT2. The experiment is described as follows: CEREP 80 panel binding: Angiotensin-II. To be noted: 10 µM. The protocol: as §1
The mark [7] stands for this setting: CA-170 5.0 µM, PD-L1 overexpressed CHO-K1.
[8] abbreviates: CA-170 7.5 μM, PD-L1 Overexpressed CHO-K1.
Where [9] appears, read: CA-170 10.0 μM, PD-L1 Overexpressed CHO-K1.
Where [10] appears, read: CA-170 15.0 μM, PD-L1 Overexpressed CHO-K1.
The mark [11] stands for this setting: CA-170 20.0 μM, PD-L1 Overexpressed CHO-K1.
Where [12] appears, read: CA-170 40.0 μM, PD-L1 Overexpressed CHO-K1.

T2 sequence (Q9NZQ7 19-290): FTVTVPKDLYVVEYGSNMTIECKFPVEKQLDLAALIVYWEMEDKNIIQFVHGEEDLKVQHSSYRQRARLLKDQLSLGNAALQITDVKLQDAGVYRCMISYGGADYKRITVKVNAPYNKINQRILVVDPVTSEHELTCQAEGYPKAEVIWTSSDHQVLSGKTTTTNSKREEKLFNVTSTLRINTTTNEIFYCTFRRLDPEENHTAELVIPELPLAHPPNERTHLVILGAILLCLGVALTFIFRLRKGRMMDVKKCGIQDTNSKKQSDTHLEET
T1 sequence (Q16602 23-461): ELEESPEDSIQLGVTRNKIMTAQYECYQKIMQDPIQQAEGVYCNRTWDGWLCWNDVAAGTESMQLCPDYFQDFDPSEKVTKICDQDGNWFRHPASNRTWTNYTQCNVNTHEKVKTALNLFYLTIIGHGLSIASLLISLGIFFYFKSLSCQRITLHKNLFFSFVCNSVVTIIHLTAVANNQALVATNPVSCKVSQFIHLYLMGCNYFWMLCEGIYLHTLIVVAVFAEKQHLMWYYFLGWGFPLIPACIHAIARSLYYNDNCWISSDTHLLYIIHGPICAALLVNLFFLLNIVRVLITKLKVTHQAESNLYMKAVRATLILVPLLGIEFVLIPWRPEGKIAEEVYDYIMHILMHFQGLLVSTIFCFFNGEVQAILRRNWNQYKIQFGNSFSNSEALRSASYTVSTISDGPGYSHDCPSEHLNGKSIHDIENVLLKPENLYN
T1 sequence (O60894 27-148): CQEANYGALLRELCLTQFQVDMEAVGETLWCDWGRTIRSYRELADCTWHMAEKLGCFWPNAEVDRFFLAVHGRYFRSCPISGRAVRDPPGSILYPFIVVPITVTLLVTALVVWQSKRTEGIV

Consider `C[C@@H](O)[C@H](NC(=O)N[C@@H](CC(N)=O)c1nc([C@@H](N)CO)no1)C(=O)O` [CA-170], for which, in experiment [1], the inhibition at 10 µM came out at 1%. Besides, the “% Inhibition of Control Specific Binding” value is no more than 14% in experiment [2], no more than 9% in experiment [5] and no more than 5% in experiment [6]. For the same compound, the I/I0 is 0.34 and 0.35 in experiment [3] (setting [7]); 0.43 and 0.4 and 0.49 in experiment [3] (setting [8]); 0.45 and 0.47 and 0.39 in experiment [3] (setting [9]); 0.55 and 0.48 and 0.49 in experiment [3] (setting [10]); 0.57 and 0.53 and 0.51 in experiment [3] (setting [11]); 0.58 and 0.55 and 0.57 in experiment [3] (setting [12]). The T2 in experiment [3] (setting [7]) was 29.67 mS and 35.08 mS and 33.97 mS; in experiment [3] (setting [8]), 43.70 mS and 51.60 mS and 41.00 mS; in experiment [3] (setting [9]), 46.10 mS and 48.48 mS and 38.70 mS; in experiment [3] (setting [10]), 61.50 mS and 50.00 mS and 52.00 mS; in experiment [3] (setting [11]) it was 66.12 mS and 58.18 mS and 55.36 mS; in experiment [3] (setting [12]) it was 67.51 mS and 61.50 mS and 66.67 mS. The “binding to PD-L1 overexpressed in the cellular context (in words)” value in experiment [3] (cell-based NMR) was “specific interaction of CA-170 to PD-L1”. Further, the Individual tumor volumes in experiment [4] (CA-170 10 mg/kg PO daily, J43 100 µg/animal/week, 10 mg/kg) was 391.77 mm3 and 388.53 mm3 and 554.94 mm3 and 536.22 mm3 and 252.8 mm3 and 593.87 mm3 and 294.73 mm3 and 377.95 mm3 and 460.46 mm3 and 205.38 mm3. The tumor growth inhibition in experiment [4] (CA-170 10 mg/kg/day orally, PD-1 antibody 100 µg/animal/week) was determined as 43%.
